Patent US20060159617A1, “Small technetium-99m and rhenium labeled agents and methods for imaging tissues, organs and tumors” (priority 2002, published 2006)

Legend:
[1] = Determination of lipophilicity and pKa values by HPLC; assay type: physicochemical; conditions: for k' (pH = 7.4): HPLC capacity factor at pH 7.4; for k' (Max): HPLC capacity factor, maximum; for pKa (Corrected): HPLC method, corrected with standard amines
Method: The lipophilicity and pKa values of all complexes were determined using HPLC methods described previously (Stylli, C.; Theobald, A. E. Determination of Ionization Constants of Radiopharmaceuticals in Mixed Solvents by HPLC. Appl. Radiat. Isot., 1987, 38, 701-708; Johannsen, B.; Scheunemann, M.; Spies, H.; Brust, P.; Wober, J.; Syhre, R.; Pietzsch, H.-J. Technetium(V) and Rhenium(V) Complexes for 5-HT2A Serotonin Receptor Binding: Structure-Affinity Considerations. Nucl. Med. Biol., 1996, 23, 429-438; and Johannsen, B.; Berger, R.; Brust, P.; Pietzsch, H.-J.; Scheunemann, M.; Seifert, S.; Spies, H.; Syhre, R. Structural Modification of Receptor-Binding Technetium-99m Complexes in Order to Improve Brain Uptake. Eur. J. Nucl. Med. 1997, 24, 316-319). […] The mobile phase was acetonitrile:phosphate buffer (0.01 M), 3:1, v/v, with the aqueous buffer adjusted to the desired pH between 3 and 11. The capacity factor (k′) was calculated for each determination (Braumann, T.; Grimme, L. H. Determination of Hydrophobic Parameters for Pyridazinone Herbicides by Liquid-Liquid Partition and Reversed-Phase High-Performance Liquid Chromatography. J. Chromatogr. 1981, 206, 7-15; El Tayer, N.; van der Waterbeemd, H.; Testa, B. Lipophilicity Measurements of Protonated Basic Compounds by Reversed-Phase High-Performance Liquid Chromatography. II. Procedure for the Determination of a Lipophilic Index Measured by Reversed-Phase High Performance Liquid Chromatography. J. Chromatogr. 1985, 320, 305-312; and Minick, D. J.; Frenz, J. H.; Patrick, M. A.; Brent, D. A. A Comprehensive Method for Determining Hydrophobicity Constants by Reversed-Phase High-Performance Liquid Chromatography. J. Med. Chem., 1988, 31, 1923-1933) and the partition coefficient at a given pH (D or logD) were calculated from the equation: log D=a log k′+b where the parameters a and b are predetermined using standard amines. The fitted points of inflection from the sigmoidal DHPLC/pH profiles permit calculation of the pKHPLC(Stylli, C.; Theobald, A. E. Determination of Ionization Constants of Radiopharmaceuticals in Mixed Solvents by HPLC. Appl. Radiat. Isot., 1987, 38, 701-708). The aqueous ionization constants pKa were calculated from the pKHPLC values after correction with a predetermined correction factor obtained using standard amine compounds. Log P values of the neutral complexes were estimated from the respective upper plateau of the sigmoidal log D/pH curve in the alkaline range.

σ2 receptor = target: T1, σ2 receptor (Rattus norvegicus, UniProt Q5U3Y7); assay: σ2 receptor competition binding assay with [3H]-DTG, σ1 masked; conditions: apparent Ki, rat liver membranes
T1 construct: Rat liver membranes were prepared from male Sprague-Dawley rat livers as previously described; from tissue; host or cells: male Sprague-Dawley rat liver membranes
T1 sequence (Q5U3Y7 1-176): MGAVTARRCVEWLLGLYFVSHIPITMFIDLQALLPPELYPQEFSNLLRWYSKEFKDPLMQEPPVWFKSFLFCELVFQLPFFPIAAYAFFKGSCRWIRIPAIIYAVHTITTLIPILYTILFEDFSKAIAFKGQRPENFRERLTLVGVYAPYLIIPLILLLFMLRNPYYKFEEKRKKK
Method: Rat liver membranes were prepared from male Sprague-Dawley rat livers as previously described (Eur. J. Pharmacol.—Mol. Pharmacol. Sect. 1994, 268, 9-18). The in vitro σ2 receptor binding affinities of rhenium coordinated complexes were determined in a competition assay using rat livers and [^3H]-DTG (31 Ci/mmol, NEN Life Science Inc., Cambridge, Mass.) as radioligand in the presence of 10 μM 1-pyrrolidinylethyl 3,4-dichlorophenylacetate oxalate (ACT915 oxalate) to mask σ1 receptors (Bioorg. & Med. Chem. Lett. 2000, 10, 17-18). Competition assays were performed with twelve concentrations of the nonradioactive rhenium complexes ranging from 1×10^−10 to 1×10^−3 and protein samples (0.15 mg of membrane protein) in a total volume of 0.25 mL of Tris-HCl (50 mM, pH 8.0) for 120 min at 25° C. All other manipulations and data analysis were performed as described vide supra for the σ1-receptor assays.

SMILES | k' (pH = 7.4) [1] | k' (Max) [1] | pKa (Corrected) [1] | Ki (σ2 receptor)
O=C1CN(CCCN2CCC(Cc3ccccc3)CC2)CC[S][Re]2(=[O])[S]CC[N]12 (centres unmarked) [Re-15] | 60 | 160 | 8.34 | 136 ± 22 nM
COc1ccccc1C1CCN(CCCN2CC[S][Re]3(=[O])[S]CC[N]3C(=O)C2)CC1 (centres unmarked) [Re-16] | 57 | 117 | 8.09 | 336 ± 70 nM
